Source: patent publication US8207178B2 (priority 2007, dated 2012)

Experiments:
[1] = tested on: HIV-1 K103N-L100I mutant; assay: microbe, parasite or virus in culture; format: cell-based, human immunodeficiency virus type 1 (HIV-1); conditions: Human immunodeficiency virus 1, HeLa, read-out: EC50 mutant K103N-L100I, mutant K103N-L100I
[2] = tested on: wild type HIV-1; assay: microbe, parasite or virus in culture; format: cell-based, human immunodeficiency virus type 1 (HIV-1); conditions: Human immunodeficiency virus 1, Hela-JC53

| SMILES | EC50 [1] | EC50 [2] |
| --- | --- | --- |
| Cc1cc(-c2cnn(Cc3ccccc3)c2)cc(C)c1Oc1nc(Nc2ccc(C#N)cc2)nc2ccn(C)c12 [Example 76, 4-(4-(4-(1-benzyl-1H-pyrazol-4-yl)-2,6-dimethylphenoxy)-5-methyl-5H-pyrrolo[3,2-d]pyrimidin-2-ylamino)benzonitrile] | > 10 nM | 1 to 10 nM |
| Cc1cc(-c2cccc(C(N)=O)c2)cc(C)c1Oc1nc(Nc2ccc(C#N)cc2)nc2ccn(C)c12 [Example 77, 4′-(2-(4-cyanophenylamino)-5-methyl-5H-pyrrolo[3,2-d]pyrimidin-4-yloxy)-3′,5′-dimethylbiphenyl-3-carboxamide] | > 10 nM | 1 to 10 nM |
| Cc1cc(-c2ccnc(N3CCOCC3)c2Cl)cc(C)c1Oc1nc(Nc2ccc(C#N)cc2)nc2ccn(C)c12 [Example 79, 4-(4-(4-(3-chloro-2-morpholinopyridin-4-yl)-2,6-dimethylphenoxy)-5-methyl-5H-pyrrolo[3,2-d]pyrimidin-2-ylamino)benzonitrile] | 1 to 10 nM | 1 to 10 nM |
| Cc1cc(-c2cccnc2Cl)cc(C)c1Oc1nc(Nc2ccc(C#N)cc2)nc2ccn(C)c12 [Example 80, 4-(4-(4-2-chloropyridin-3-yl)-2,6-dimethylphenoxy)-5-methyl-5H-pyrrolo[3,2-d] pyrimidin-2-ylamino benzonitrile] | 1 to 10 nM | 1 to 10 nM |
| COc1cccc(-c2cc(C)c(Oc3nc(Nc4ccc(C#N)cc4)nc4ccn(C)c34)c(C)c2)c1C#N [Example 81, 4′-(2-(4-cyanophenylamino)-5-methyl-5H-pyrrolo[3,2-d]pyrimidin-4-yloxy)-3-methoxy-3′,5′-dimethylbiphenyl-2-carbonitrile] | > 10 nM | 1 to 10 nM |
| Cc1cc(-c2ccc(C#N)nc2)cc(C)c1Oc1nc(Nc2ccc(C#N)cc2)nc2ccn(C)c12 [Example 84, 5-(4-(2-(4-cyanophenylamino)-5-methyl-5H-pyrrolo[3,2-d]pyrimidin-4-yloxy)-3,5-dimethyl-phenyl)picolinonitrile] | 1 to 10 nM | 1 to 10 nM |
| Cc1cc(-c2ccc(S(=O)(=O)NC3CC3)cc2)cc(C)c1Oc1nc(Nc2ccc(C#N)cc2)nc2ccn(C)c12 [Example 85, 4′-(2-(4-cyanophenylamino)-5-methyl-5H-pyrrolo[3,2-d]pyrimidin-4-yloxy)-N-cyclopropyl-3′,5′-dimethylbiphenyl-4-sulfonamide] | > 10 nM | 1 to 10 nM |
| Cc1cc(-c2cc3ccccc3[nH]2)cc(C)c1Oc1nc(Nc2ccc(C#N)cc2)nc2ccn(C)c12 [Example 86, 4-(4-(4-(1H-indol-2-yl)-2,6-dimethylphenoxy)-5-methyl-5H-pyrrolo[3,2-d]pyrimidin-2-ylamino)benzonitrile] | > 10 nM | > 10 nM |
| COc1cncc(-c2cc(C)c(Oc3nc(Nc4ccc(C#N)cc4)nc4ccn(C)c34)c(C)c2)c1 [Example 87, 4-(4-(4-(5-methoxypyridin-3-yl)-2,6-dimethylphenoxy)-5-methyl-5H-pyrrolo[3,2-d]pyrimidin-2-ylamino) benzonitrile] | > 10 nM | 1 to 10 nM |
| Cc1cc(-c2ccc(C(N)=O)cc2)cc(C)c1Oc1nc(Nc2ccc(C#N)cc2)nc2c(Cl)cn(C)c12 [Example 88, 4′-(7-chloro-2-(4-cyanophenylamino)-5-methyl-5H-pyrrolo[3,2-d]pyrimidin-4-yloxy)-3′,5′-dimethylbiphenyl-4-carboxamide] | 1 to 10 nM | 1 to 10 nM |
| Cc1cc(-c2ccc(C(=O)N(C)C)cc2)cc(C)c1Oc1nc(Nc2ccc(C#N)cc2)nc2ccn(C)c12 [Example 89, 4′-(2-(4-cyanophenylamino)-5-methyl-5H-pyrrolo[3,2-d]pyrimidin-4-yloxy)-N,N,3′,5′-tetramethylbiphenyl-4-carboxamide] | > 10 nM | 1 to 10 nM |
| Cc1cc(-c2ccc(C(=O)N3CCC3)cc2)cc(C)c1Oc1nc(Nc2ccc(C#N)cc2)nc2ccn(C)c12 [Example 90] | > 10 nM | 1 to 10 nM |
| Cc1cc(-c2ccc(C(=O)N3CCC(C#N)C3)cc2)cc(C)c1Oc1nc(Nc2ccc(C#N)cc2)nc2ccn(C)c12 (stereo not shown) [Example 91, 1-(4′-(2-(4-cyanophenylamino)-5-methyl-5H-pyrrolo[3,2-d]pyrimidin-4-yloxy)-3′,5′-dimethylbiphenylcarbonyl) pyrrolidine-3-carbonitrile] | > 10 nM | > 10 nM |
| Cc1cc(-c2ccc(C(=O)NC3CC3)cc2)cc(C)c1Oc1nc(Nc2ccc(C#N)cc2)nc2ccn(C)c12 [Example 92, 4′-(2-(4-cyanophenylamino)-5-methyl-5H-pyrrolo[3,2-d]pyrimidin-4-yloxy)-N-cyclopropyl-3′,5′-dimethylbiphenyl-4-carboxamide] | > 10 nM | > 10 nM |
| Cc1cc(-c2ccc(C(=O)N3CCC(O)C3)cc2)cc(C)c1Oc1nc(Nc2ccc(C#N)cc2)nc2ccn(C)c12 (stereo not shown) [Example 94, 4-(4-(4′-(3-hydroxypyrrolidine-1-carbonyl)-3,5-dimethylbiphenyl-4-yloxy)-5-methyl-5H-pyrrolo[3,2-d]pyrimidin-2-ylamino) benzonitrile] | 1 to 10 nM | 1 to 10 nM |
| Cc1cc(-c2ccccc2)cc(C)c1Oc1nc(Nc2ccc(C#N)cc2)nc2ccn(C)c12 [Example 95, 4-(4-(3,5-Dimethylbiphenyl-4-yloxy)-5-methyl-5H-pyrrolo[3,2-d]pyrimidin-2-ylamino)benzonitrile] | > 10 nM | > 10 nM |

| SMILES | EC50 [1] | EC50 [2] |
| --- | --- | --- |
| Cc1cc(-c2ccncc2)ccc1Oc1nc(Nc2ccc(C#N)cc2)nc2nc[nH]c12 [Example 98, 4-(6-(2-Methyl-4-(pyridin-4-yl)phenoxy)-7H-purin-2-ylamino)benzonitrile] | > 10 nM | < 1 nM |
| COc1ccc(Cn2cnc3nc(Nc4ccc(C#N)cc4)nc(Oc4c(C)cc(-c5ccncc5)cc4Cl)c32)cc1 [Example 99, 4-(6-(2-chloro-6-methyl-4-(pyridin-4-yl)phenoxy)-7-(4-methoxybenzyl)-7H-purin-2-ylamino)benzonitrile] | > 10 nM | 1 to 10 nM |
| Cc1cc(-c2ccncc2)cc(Cl)c1Oc1nc(Nc2ccc(C#N)cc2)nc2nc[nH]c12 [Example 100, 4-(6-(2-Chloro-6-methyl-4-(pyridin-4-yl)phenoxy)-7H-purin-2-ylamino)benzonitrile] | > 10 nM | 1 to 10 nM |
| COc1ccc(Cn2cnc3nc(Nc4ccc(C#N)cc4)nc(Oc4ccc(-c5ccncc5)cc4Cl)c32)cc1 [Example 101, 4-(6-(2-Chloro-4-(pyridin-4-yl)phenoxy)-7-(4-methoxybenzyl)-7H-purin-2-ylamino)benzonitrile] | > 10 nM | > 10 nM |
| N#Cc1ccc(Nc2nc(Oc3ccc(-c4ccncc4)cc3Cl)c3[nH]cnc3n2)cc1 [Example 102, 4-(6-(2-Chloro-4-(pyridin-4-yl)phenoxy)-7H-purin-2-ylamino)benzonitrile] | > 10 nM | < 1 nM |
| COc1ccc(Cn2cnc3nc(Nc4ccc(C#N)cc4)nc(Oc4c(Cl)cc(-c5ccncc5)cc4Cl)c32)cc1 [Example 103, 4-(6-(2,6-Dichloro-4-(pyridin-4-yl)phenoxy)-7-(4-methoxybenzyl)-7H-purin-2-ylamino)benzonitrile] | > 10 nM | 1 to 10 nM |
| N#Cc1ccc(Nc2nc(Oc3c(Cl)cc(-c4ccncc4)cc3Cl)c3[nH]cnc3n2)cc1 [Example 104, 4-(6-(2,6-Dichloro-4-(pyridin-4-yl)phenoxy)-7H-purin-2-ylamino)benzonitrile] | 1 to 10 nM | 1 to 10 nM |
| COc1ccc(Cn2cnc3c(Oc4ccc(-c5ccncc5)cc4)nc(Nc4c(C)cc(C#N)cc4C)nc32)cc1 [Example 105, 4-(9-(4-Methoxybenzyl)-6-(4-(pyridin-4-yl)phenoxy)-9H-purin-2-ylamino)-3,5-dimethylbenzonitrile] | > 10 nM | > 10 nM |
| Cc1cc(C#N)cc(C)c1Nc1nc(Oc2ccc(-c3ccncc3)cc2)c2nc[nH]c2n1 [Example 106, 3,5-Dimethyl-4-(6-(4-(pyridin-4-yl)phenoxy)-9H-purin-2-ylamino)benzonitrile] | > 10 nM | > 10 nM |
| Cc1cc(-c2ccncc2)cc(C)c1Oc1nc(Nc2ccc(C#N)cc2)nc2ncn(C)c12 [Example 107, 4-(6-(2,6-Dimethyl-4-(pyridin-4-yl)phenoxy)-7-methyl-7H-purin-2-ylamino)benzonitrile] | 1 to 10 nM | 1 to 10 nM |
| Cc1cc(-c2ccncc2)cc(C)c1Oc1nc(Nc2ccc(C#N)cc2)nc2c1ncn2C [Example 108, 4-(6-(2,6-dimethyl-4-(pyridin-4-yl)phenoxy)-9-methyl-9H-purin-2-ylamino)benzonitrile] | 1 to 10 nM | 1 to 10 nM |
| Cc1cc(-c2ccc(C(N)=O)cc2)cc(C)c1Oc1nc(Nc2ccc(C#N)cc2)nc2c1ncn2C [Example 109, 4′-(2-(4-cyanophenylamino)-9-methyl-9H-purin-6-yloxy)-3′,5′-dimethylbiphenyl-4-carboxamide] | 1 to 10 nM | < 1 nM |
| Cc1cc(-c2ccc(C(=O)O)cc2)cc(C)c1Oc1nc(Nc2ccc(C#N)cc2)nc2ncn(C)c12 [Example 110, 4′-(2-(4-Cyanophenylamino)-7-methyl-7H-purin-6-yloxy)-3′,5′-dimethylbiphenyl-4-carboxylic acid] | > 10 nM | > 10 nM |
| Cn1cnc2nc(Nc3ccc(C#N)cc3)nc(Oc3c(Cl)cc(-c4ccc(C(N)=O)cc4)cc3Cl)c21 [Example 112, 3′,5′-dichloro-4′-(2-(4-cyanophenylamino)-7-methyl-7H-purin-6-yloxy)biphenyl-4-carboxamide] | 1 to 10 nM | < 1 nM |
| Cc1cc(-c2ccc(S(N)(=O)=O)cc2)cc(Cl)c1Oc1nc(Nc2ccc(C#N)cc2)nc2c1ncn2C [Example 113, 3′-chloro-4′-(2-(4-cyanophenylamino)-9-methyl-9H-purin-6-yloxy)-5′-methylbiphenyl-4-sulfonamide] | 1 to 10 nM | < 1 nM |
| Cn1cnc2c(Oc3c(Cl)cc(-c4ccc(C(N)=O)cc4)cc3Cl)nc(Nc3ccc(C#N)cc3)nc21 [Example 114, 3′,5′-dichloro-4′-(2-(4-cyanophenylamino)-9-methyl-9H-purin-6-yloxy)biphenyl-4-carboxamide] | > 10 nM | < 1 nM |
